Calls of active or inactive are those of the source. No rule for the calls is given here.
System: Trypanosoma brucei growth inhibition, luminescence
Test: Trypanosoma brucei growth inhibition, luminescence (AID 1159562);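 also: parasites grew with compound for 24 h before the luminescence read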

Row | IC50 | SMILES
1 | 0.4 µM | COc1ncc(-c2ccc3nccc(-c4ccncc4)c3c2)cc1NS(=O)(=O)C1CC1
2 | 0.5 µM | O=S1N=C(NCCCN(Cc2ccc(F)cc2)c2ccccn2)C(NCc2ccncc2)=N1 (configuration not stated)
3 | 0.79 µM | Nc1nonc1-c1nc2cncc(C(=O)N3CC[C@H](N)C3)c2n1CC1CC1
4 | > 40 µM (inactive) | Fc1ccccc1N1C[C@H]2CCN(c3cccnc3)C[C@H]2C1
5 | 1 µM | c1ccc2[nH]c(-c3ccc(N4CCCC4)nc3)nc2c1
6 | 2.5 µM | CC(C)(C)c1cc(NC2CC2)nc(-c2ccccn2)n1
7 | 25 µM | CN(Cc1cccnc1)Cc1ccc(N2CCN(C(=O)C3(c4ccc(Cl)cc4)CC3)CC2)nc1
8 | 0.25 µM | O=C(NCc1nnc2n1CCCCC2)c1ccc(-c2ccc(F)cc2)o1
9 | 20 µM | CCN(CC)c1nc(N(C)C)nc2c1CN(Cc1ccccc1)CC2
10 | 5 µM | CCN(Cc1nc2ccc(C(=O)N3CCN(c4ncccn4)CC3)cc2[nH]1)C1CCCc2cccnc21 (configuration not stated)
11 | > 40 µM (inactive) | CCCC(=O)N(Cc1ccccn1)c1nc2ccccc2s1
12 | > 40 µM (inactive) | c1ccc(CCNCc2cncc3nc(-c4cnccn4)n(C4CCCCC4)c23)cc1
13 | > 40 µM (inactive) | Cc1ccc2c(c1)-c1onc(C(=O)N3CCCCC3c3cccnc3)c1CO2 (configuration not stated)
14 | > 40 µM (inactive) | COc1cccc(Nc2cc(C)nc(-c3ccccn3)n2)c1
15 | > 40 µM (inactive) | OCCCNc1nc(Nc2ccncc2)nc2ccccc12

The next lines start with the molecule.

Row | SMILES | IC50
16 | Cc1nc(N2CC(C)OC(C)C2)sc1C(=O)Nc1ccc2c(c1)OCO2 (configuration not stated) | > 40 µM (inactive)
17 | CNc1nc(C)nc(N2CCc3cc(C(=O)NCc4ccc(-c5ccn[nH]5)cc4Cl)ccc32)n1 | 10 µM
18 | COc1ccc(C(C)(C)C)cc1S(=O)(=O)n1ccnc1 | > 40 µM (inactive)
19 | CCOc1ccc(CN(C)Cc2nc(N)nc(Nc3ccc(C)cc3)n2)cc1 | 2 µM
20 | COc1ccc2c(Cl)c(C(=O)N3CCC3)sc2c1Cl | > 40 µM (inactive)
21 | CCn1nccc1CN(C)C(=O)C=Cc1ccc(Cl)cc1 | > 40 µM (inactive)
22 | Cc1cc2nc(CN(C)Cc3ncccc3C)[nH]c2cc1C | 0.63 µM
23 | Cc1nc(C(=O)Nc2ccc3c(c2)OCO3)nn1-c1ccc(Cl)cc1 | > 40 µM (inactive)
24 | COc1ncc(-c2ccc3nccc(-c4ccncc4)c3c2)cc1NS(C)(=O)=O | 1 µM
25 | C[C@@H](Oc1cc(-n2cnc3ccc(C(O)CO)cc32)sc1C(N)=O)c1ccccc1C(F)(F)F (some centres not stated) | 0.79 µM
26 | O=C(CN1CCN(c2ccccn2)CC1)Nc1cc(S(=O)(=O)N2CCCCCC2)ccc1Cl | 25 µM
27 | O=C(Nc1ccc(Br)c(Cl)c1)Nc1ccc2c(c1)OCO2 | 13 µM
28 | CN(Cc1nc2ccccc2s1)C(=O)C=Cc1cc2ccccc2o1 | > 40 µM (inactive)
29 | Nc1cc(-c2ccc3ncnc(N4CCOCC4)c3c2)cnc1N | 0.16 µM
30 | Cc1cc2nc(N3CC[C@H]3C(N)=O)nc(Nc3cc(C4CC4)[nH]n3)c2s1 | 0.13 µM
31 | CC(C)S(=O)(=O)c1ccc(-c2cnc(N)c3cc(-c4ccnc(N)n4)ccc23)cc1 | 0.25 µM
32 | CCN(Cc1ccncc1)Cc1ccc(NC(=O)c2cc(-c3ccc(F)cc3)n[nH]2)cc1 | > 40 µM (inactive)
33 | COc1cc(-c2nc(N3CCOCC3)sc2-c2ccnc(NC3CCOCC3)n2)ccc1Cl | > 40 µM (inactive)
34 | CC(=O)Nc1ccc(-c2ccnc(Nc3cccc(C#N)c3)n2)cc1 | 0.79 µM
35 | Clc1ccc(Sc2cnccc2N2CCOCC2)cc1 | > 40 µM (inactive)
36 | O=C(NCCc1csc(-c2ccc(F)cc2)n1)c1cccs1 | 0.2 µM
37 | CN1CCN(c2nc(-c3ccc(Cl)cc3)c3c(N)n(C)nc3n2)CC1 | 32 µM
38 | CC(C)(C)C(Cn1ccnc1)NC(=O)c1ccc2nc(C3CC3)oc2c1 (configuration not stated) | > 40 µM (inactive)
39 | Cc1nn(C2CCS(=O)(=O)C2)c(C)c1CN(C)C(=O)C=Cc1sc2ccccc2c1Cl (configuration not stated) | 25 µM
40 | Cn1nccc1NC(=O)Cn1ccc(-c2ccncc2)n1 | 0.63 µM
41 | Cc1cc(C)c(C#N)c(SCC(=O)c2ccc3c(c2)OCO3)n1 | 16 µM
42 | CN(C)c1ccc(N)cc1CN(CC1CCCO1)S(C)(=O)=O (configuration not stated) | > 40 µM (inactive)

Reference: PubChem BioAssay AID1159562 (GlaxoSmithKline (GSK), 2015)
